Results: patent publication US20090291964A1, “Potentiators of Antibacterial Activity” (priority 2003, published 2009)

Legend:
B. subtilis = assay: MIC of EtBr in presence and absence of EPI; assay type: cell-based; conditions: B. subtilis wild type, EPI up to 100 μg/ml, data not shown
Excerpt: (§1) EtBr is a general substrate for many different efflux pumps in bacteria. Markham et al., “Multiple Novel Inhibitors of the NorA Multidrug Transporter of Staphylococcus aureus”, Antimicrob. Agents Chemother. 43:2404-2408 (1999). Since EtBr is a non-specific DNA intercalator, the only known mechanism of resistance to EtBr is via efflux. Markham et al., “Multiple Novel Inhibitors of the NorA Multidrug Transporter of Staphylococcus aureus”, Antimicrob. Agents Chemother. 43:2404-2408 (1999).

[1] = tested on: permeability mutant strains of E. coli; assay: MIC of EtBr in presence and absence of EPI; assay type: cell-based
Excerpt: as §1

[2] = alone and in combination with chemotherapeutic agents for cancer therapies; cited from earlier work

SMILES | reduction of the MIC of EtBr (B. subtilis) | efflux inhibitory activity [1] | adverse events in clinical studies [2]
COc1cc(C(=O)C(=O)N2CCCC[C@H]2C(=O)OC(CCCc2cccnc2)CCCc2cccnc2)cc(OC)c1OC [A-106] | 8 fold | some efflux inhibitory activity was observed | only mild adverse events
COc1cc(C(=O)C(=O)N(C)[C@@H](Cc2ccc(Cl)cc2)C(=O)N(Cc2ccccc2)C(CCc2ccncc2)CCc2ccncc2)cc(OC)c1OC [C-9, (S)—N-Benzyl-2-(methyl-(2-oxo-2-(3,4,5-trimethoxyphenyl)acetyl)amino)-3-(4-chloro-phenyl)-N-(3-pyridin-4-yl-1-(2-pyridin-4-yl-ethyl)propyl)propionamide] | 8 fold | some efflux inhibitory activity was observed | 
